Measurements as given in patent US8349553B2, “Jasmonate based assays for identifying compounds that selectively inhibit mitochondrial bound hexokinases” (Ramot at Tel Aviv University Ltd., priority 2007, dated 2013).
Entries after “also recorded” stand apart in the source; their conditions may differ.

What was measured:
[1] = system: CT26 cells transfected with pcDNA3-HKII or pcDNA3; details: CT26; 3.75 μM; 3 hours exposure
Description: Cell death was determined by trypan blue exclusion. […] Alternatively, cytotoxicity was determined using hemacolor staining. Upon completion of a given experiment, cells were stained and the percentage of dead (detached) cells was determined spectrophotometrically.
CT26 cells were transfected with pcDNA3-HKII or pcDNA3, using FuGene HD transfection reagent (Roche, Basel, Switzerland), according to the manufacturer's instruction followed by selection using G418.
To examine the effect of hexokinase over-expression on methyl jasmonate action, CT26 cells were transfected with plasmids, pcDNA3-HKII or pcDNA3, encoding for hexokinase II over-expression and a control plasmid, respectively (Zaid, 2005). Cells were seeded in 96-well plates and allowed to adhere. Cells were exposed to methyl jasmonate for 60 minutes prior to ATP determination (FIG. […] 9B).

[2] = system: mitochondria-bound hexokinase (mitochondrial fraction from a CT-26 tumor); test: Hexokinase detachment assay, mitochondrial fraction of CT-26 tumor; assay type: biochemical, murine; details: CT-26 tumor mitochondrial fraction; 30 minutes of incubation
Description: Mitochondrial fraction was prepared by mechanical lysis and differential centrifugation. All stages were performed on ice. Cells or extracted tissues were washed with PBS and disrupted by homogenization in extraction buffer (Sucrose 250 mM, HEPES-NaOH 10 mM, pH 7.2) freshly supplemented with 0.1 mM EDTA and Protease Inhibitors cocktail (Sigma). For each gram of cells or tissue, 4 volumes of extraction buffer were applied. The homogenate volume was doubled with the extraction buffer, and tissue and cell debris as well as nuclei were pelleted by centrifugation of 1,000 g for 10 minutes. The supernatant was further spun at 13,000 g for 10 minutes twice. Endoplasmic reticulum layer was removed. The pellet, designated as the mitochondrial fraction, was suspended in the appropriate buffer, depending on the assay for which the mitochondrial fraction was prepared. Mitochondrial fractions were used immediately or stored at −196° C.
To determine the amount of hexokinase detached from the mitochondrial fraction by different agents, mitochondria were incubated with the agent of interest and pelleted by centrifugation. Activity of hexokinase in the supernatant (i.e., activity of the detached hexokinase) was determined spectrophotometrically at 340 nm. The reaction couples the ADP formation by hexokinase, consuming the ADP for pyruvate formation by pyruvate kinase, and reducing the pyruvate with NADH by lactate dehydrogenase. Briefly, mitochondria were suspended in incubation buffer (HEPES pH 7.4 20 mM, Sucrose 0.25M, Glucose 10 mM, KCl5 mM, MgCl2 10 mM; 0.2 mg/test, 100 μL/test) and incubated as described below. […]
Methyl jasmonate perturbs mitochondria directly in a PTPC-dependent manner (Rotem, 2005). In order to determine whether methyl jasmonate is able to detach hexokinase from mitochondrial fraction isolated from CT-26 tumors, the activity of hexokinase in the supernatant of mitochondrial fraction treated for different time periods was measured. […] The activity of unbound hexokinase was measured and compared to the activity of spontaneously detached hexokinase (control).

[3] = system: mitochondrial fraction of mouse brain; test: Mitochondrial swelling assay, mouse brain; assay type: biochemical; details: 1 mM
Description: (§1) Freshly isolated mitochondrial fraction was washed with extraction buffer to remove EDTA and resuspended in swelling buffer (Mannitol 220 mM, Sucrose 70 mM, Tris, pH 7.2, 150 mM, KH2PO4, pH 7.2, 0.2 mM; 0.2 mg in 100 μL) freshly supplemented with potassium succinate, pH 7.2, 5 mM. Every component was sodium-free. Optical density was monitored at the wave length of 540 nm for 2-5 minutes before the addition of the examined reagents, e.g. methyl jasmonate, and for additional 20 minutes afterwards.
(§2) In order to examine the consistency of the relationship between the ability of methyl jasmonate to detach bound hexokinase and mitochondrial damage, methyl jasmonate was tested in mouse brain in comparison to mouse liver. The comparison was performed due to known differences of mitochondrial hexokinase content between mouse brain vs. its liver. It is well established in the art that brain mitochondrial fraction is rich in bound hexokinase, while liver mitochondrial fraction is essentially devoid of it (Wilson, 1995). […] Mitochondrial fractions were incubated for either 10, 30 or 60 minutes at 37° C. The activity of unbound hexokinase was measured and compared to the activity of spontaneously (control) detached hexokinase. Consequently, the ability of methyl jasmonate to induce swelling in mitochondrial fraction isolated from mouse brain and liver was tested.

[4] = Fingrut, 2002, 2005, Rotem; cited from earlier work
[5] = system: hexokinase; test: Hexokinase activity, agent added directly to the coupled assay mixture; assay type: biochemical; details: coupled pyruvate kinase/lactate dehydrogenase assay, 340 nm
[6] = system: mitochondrial fraction of mouse liver; test: Mitochondrial swelling assay, mouse liver; assay type: biochemical; details: 1 mM
Description: as §1, §2

[7] = molecular target: T1, purified rat brain HKI (Rattus norvegicus, UniProt P05708); test: Surface plasmon resonance analysis of jasmonate-HK interactions; assay type: binding; details: analyte injected at varying concentrations (MJ 0.375-6 mM); 25° C.
T1 construct: from tissue; host or cells: rat brain mitochondria
T1 sequence (P05708 whole entry): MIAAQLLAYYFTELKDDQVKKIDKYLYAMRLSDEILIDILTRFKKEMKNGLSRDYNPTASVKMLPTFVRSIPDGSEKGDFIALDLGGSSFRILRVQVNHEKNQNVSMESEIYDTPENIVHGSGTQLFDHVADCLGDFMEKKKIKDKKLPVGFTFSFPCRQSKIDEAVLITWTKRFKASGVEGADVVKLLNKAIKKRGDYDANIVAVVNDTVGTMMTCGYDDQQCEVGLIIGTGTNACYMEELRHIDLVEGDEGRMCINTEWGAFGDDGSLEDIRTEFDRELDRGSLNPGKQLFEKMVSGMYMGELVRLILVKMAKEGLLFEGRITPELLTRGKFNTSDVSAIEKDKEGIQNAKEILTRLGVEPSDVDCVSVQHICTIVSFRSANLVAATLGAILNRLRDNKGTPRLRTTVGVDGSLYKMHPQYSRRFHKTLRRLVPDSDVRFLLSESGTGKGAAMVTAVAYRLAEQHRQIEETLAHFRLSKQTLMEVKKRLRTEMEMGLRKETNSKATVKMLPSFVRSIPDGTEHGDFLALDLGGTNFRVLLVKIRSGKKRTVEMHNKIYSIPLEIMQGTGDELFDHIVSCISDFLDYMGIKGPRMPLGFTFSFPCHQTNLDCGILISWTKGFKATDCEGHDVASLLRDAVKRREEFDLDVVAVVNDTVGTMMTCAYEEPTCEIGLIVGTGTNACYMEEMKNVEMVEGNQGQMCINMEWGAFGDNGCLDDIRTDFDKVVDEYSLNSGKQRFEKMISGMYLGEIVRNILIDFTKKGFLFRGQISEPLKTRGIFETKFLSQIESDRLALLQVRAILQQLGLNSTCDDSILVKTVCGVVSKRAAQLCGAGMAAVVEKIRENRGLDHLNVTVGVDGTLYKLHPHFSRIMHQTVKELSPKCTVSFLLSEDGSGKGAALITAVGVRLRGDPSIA
Description: Rat brain HK-I was purified as following, crude brain mitochondria containing tightly bound HK-I were incubated with 1.2 mM glucose-6-phosphate and 0.5 mM K-EDTA to release the enzyme into the soluble fraction. Further purification of HK-I was achieved by affinity chromatography on Cibacron Blue-agarose (Pharmacia). The purified enzyme was concentrated and washed in 0.5 mM K-EDTA, 10 mM glucose, 1 mM dithiothreitol and 10 mM K-Hepes, pH 7.8, using an Amicon device and a 50,000 Da molecular mass cut-off membrane (Spectrum; type C). The concentrated enzyme (up to 1 mg/ml; 30-60 units/mg) was frozen in liquid nitrogen and stored at −80° C. until use (Azoulay-Zohar, 2004).
Surface plasmon resonance (SPR) is an optical biosensor technique that measures molecular binding events at a metal surface by detecting changes in the local refractive index. SPR is the surface-sensitive technique ideal for studying interactions between immobilized biomolecules (ligands) and a solution-phase analyte. The biosensor response is directly proportional to the mass of the bound analyte. The advantage of SPR for investigation of small molecular weight analytes over conventional techniques such as fluorescence or enzyme-linked immunosorbent assay is detection of an analyte being label-free and direct, without the need for labeling of analyte or multistep detection protocols (sandwich assay). […]

## CN[C@@H]1C[C@H]2O[C@@](C)([C@@H]1OC)n1c3ccccc3c3c4c(c5c6ccccc6n2c5c31)C(=O)NC4 [staurosporine]
[1]
  cytotoxicity (hemacolor), hexokinase II over-expressing vs. control cells: similarly decreased by hexokinase II over-expression

## CC/C=C\C[C@H]1C(=O)CC[C@@H]1CC(=O)O [jasmonic acid]
[2]
  detachment of hexokinase (activity of unbound hexokinase compared to control), dose dependence: did not show considerable detachment of hexokinase from mitochondrial fraction; also recorded: less effective than methyl jasmonate at detaching hexokinase from mitochondrial fraction
[3]
  mitochondrial swelling (optical density at 540 nm): to a marginal extent
[4]
  cytotoxicity relative to methyl jasmonate: lower cytotoxicity than methyl jasmonate
[5]
  influence on hexokinase activity when added directly to the assay mixture: neither methyl jasmonate nor jasmonic acid added directly to the assay mixture, influence hexokinase activity
[6]
  mitochondrial swelling (optical density at 540 nm): not in liver
[7]
  binding to immobilized hexokinase (SPR): did not bind hexokinase at all
